The text below walks through data of patent US9115082B2, “Dipeptidyl-peptidase-IV inhibitors for treatment of type 2 diabetes complex with hypertension” (priority 2012, dated 2015).

In this assay the test system is blood glucose. Description: oral glucose tolerance test in diet-induced obese mice. The class given is in vivo, Male C57BL/6 mice. The note with it: fasted DIO mice, 1 hour before glucose (2 g/kg) challenge. The method, then:
Specifically, an oral glucose tolerance test in diet-induced obese mice were conducted. Male C57BL/6 mice (6-8 weeks of age) were used. Mice were fed a lean (control group) or high-fat (DIO group) diet (5 and 35% fat by weight, respectively) for 6-9 weeks and then administered an oral glucose tolerance test. […] Blood glucose was determined at various time points from tail bleeds using a glucometer. The blood glucose response curve (AUC's, t==2 hours) are 18.7±1.6, 20.1±0.7, 21.3±11.5 for above three groups, respectively.

Regarding `Cl.N#CC1CCCN1C(=O)CNCC(O)COc1ccccc1` (stereo not drawn) [compound 7, 1-(2-(2-hydroxy-3-phenoxypropylamino)acetyl)pyrrolidine-2-carbonitrile hydrochloride], the “blood glucose response curve (AUC's, t==2 hours)” value by setting is: (3 mg/kg oral) 21.3±11.5; (10 mg/kg oral) 20.1±0.7; (30 mg/kg oral) 18.7±1.6.
